From patent US20230278981A1, “DICHLOROPHENOL HSD17B13 INHIBITORS AND USES THEREOF” (INIPHARM, INC., priority 2020, published 2023) come the findings set out here.

Molecules are shown by their SMILES. pIC50: −log10 of the molar value.

For the experiment, the target named is HSD17B13 (Homo sapiens (Human), UniProt Q7Z5P4). Put plainly: LC/MS estrone detection assay: conversion of estradiol to estrone by HSD17B13. Particulars: 4 μM estradiol, 6 mM NAD+, 30 nM HSD17B13 enzyme (E. coli expressed His-tagged), 2 hours at 26.5° C. The format is biochemical. The gist of the method:
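His-tagged E. coli-expressed HSD17B13 (30 nM) with 4 μM estradiol and 6 mM NAD+ in 1 M potassium phosphate pH 7.4, 0.5% DMSO, 2 h at 26.5° C. Estrone and estradiol quantified by LC-MS/MS after MeCN quench with D4-estrone internal standard; activity as % of uninhibited enzyme, IC50 by four-parameter fit, duplicates.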

HSD17B13, sequence (Q7Z5P4 20-300): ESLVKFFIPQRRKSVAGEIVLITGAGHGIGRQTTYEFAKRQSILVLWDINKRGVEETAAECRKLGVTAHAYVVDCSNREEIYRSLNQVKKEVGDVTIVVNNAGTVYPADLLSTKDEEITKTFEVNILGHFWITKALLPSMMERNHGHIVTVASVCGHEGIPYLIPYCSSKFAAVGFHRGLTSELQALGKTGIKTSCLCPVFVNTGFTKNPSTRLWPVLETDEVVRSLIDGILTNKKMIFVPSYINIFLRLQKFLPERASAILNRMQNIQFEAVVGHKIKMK

The compound `O=C(Nc1cccc2ncn(Cc3ccc(OC(F)(F)F)cc3)c(=O)c12)c1cc(Cl)c(O)c(Cl)c1` [Example 8, 3,5-dichloro-4-hydroxy-N-(4-oxo-3-(4-(trifluoromethoxy)benzyl)-3,4-dihydroquinazolin-5-yl)benzamide] had a pIC50 of 6.30 to 7.00. For the compound `O=C(Nc1cccc2ncn(Cc3ncccc3F)c(=O)c12)c1cc(Cl)c(O)c(Cl)c1` [Example 130, 3,5-dichloro-N-{3-[(3-fluoropyridin-2-yl)methyl]-4-oxo-3,4-dihydroquinazolin-5-yl}-4-hydroxybenzamide], the pIC50 is 6.30 to 7.00. Take `Cc1nc2c(Cl)ccc(NC(=O)c3cc(Cl)c(O)c(Cl)n3)c2c(=O)n1Cc1ncccc1C(F)(F)F` [Example 165, 4,6-dichloro-N-(8-chloro-2-methyl-4-oxo-3-((3-(trifluoromethyl)pyridin-2-yl)methyl)-3,4-dihydroquinazolin-5-yl)-5-hydroxypicolinamide]: the pIC50 was 6.30 to 7.00. The compound `O=C(Nc1cccc2ncn(Cc3ccccc3N3CCS(=O)(=O)CC3)c(=O)c12)c1cc(Cl)c(O)c(Cl)c1` [Example 83, 3,5-dichloro-N-(3-(2-(1,1-dioxidothiomorpholino)benzyl)-4-oxo-3,4-dihydroquinazolin-5-yl)-4-hydroxybenzamide] gave a pIC50 of 5.00 to 6.00. The value for `O=C(Nc1cccc2ncn(C3(c4ccccc4F)CC3)c(=O)c12)c1cc(Cl)c(O)c(Cl)c1` [Example 21, 3,5-dichloro-N-(3-(1-(2-fluorophenyl)cyclopropyl)-4-oxo-3,4-dihydroquinazolin-5-yl)-4-hydroxybenzamide] was not below 7.00. The compound `O=C(Nc1cccc2ncn(Cc3cccc(OC(F)(F)F)c3)c(=O)c12)c1cc(Cl)c(O)c(Cl)c1` [Example 10, 3,5-dichloro-4-hydroxy-N-(4-oxo-3-(3-(trifluoromethoxy)benzyl)-3,4-dihydroquinazolin-5-yl)benzamide] had a negative logarithm of the IC50 (pIC50) not below 7.00. The value for `Cc1ccc(NC(=O)c2cc(Cl)c(O)c(Cl)n2)c2c(=O)n(Cc3ccccc3OC(F)(F)F)cnc12` [Example 91, 4,6-dichloro-5-hydroxy-N-(8-methyl-4-oxo-3-(2-(trifluoromethoxy)benzyl)-3,4-dihydroquinazolin-5-yl)picolinamide] was 6.30 to 7.00. The value for `Cn1nc(CNC(=O)c2ncsc2NC(=O)c2cc(Cl)c(O)c(Cl)n2)c2ccccc21` [Example 187, 5-(4,6-dichloro-5-hydroxypicolinamido)-N-((1-methyl-1H-indazol-3-yl)methyl)thiazole-4-carboxamide] was 6.30 to 7.00; that for `O=C(NC1CCCC1C(=O)NCc1ccccc1OC(F)(F)F)c1cc(Cl)c(O)c(Cl)n1` (stereo not drawn) [Example 134, 4,6-dichloro-5-hydroxy-N-[2-({[2-(trifluoromethoxy)phenyl]methyl}carbamoyl)cyclopentyl] pyridine-2-carboxamide] was 6.00 to 6.30; that for `[2H]C([2H])([2H])c1nc2c(F)ccc(NC(=O)c3cc(Cl)c(O)c(Cl)c3)c2c(=O)n1Cc1ccccc1C(F)(F)F` [Example 171, 3,5-dichloro-N-(8-fluoro-2-(methyl-d3)-4-oxo-3-(2-(trifluoromethyl)benzyl)-3,4-dihydroquinazolin-5-yl)-4-hydroxybenzamide] was 6.30 to 7.00. The value for `O=C(Nc1ccc(Cl)c2ncn(Cc3ccccc3OC(F)(F)F)c(=O)c12)c1cc(Cl)c(O)c(Cl)n1` [Example 90, 4,6-dichloro-N-(8-chloro-4-oxo-3-(2-(trifluoromethoxy)benzyl)-3,4-dihydroquinazolin-5-yl)-5-hydroxypicolinamide] was 6.30 to 7.00. For the compound `[2H]C([2H])(c1ccccc1C(F)(F)F)n1c(C)nc2c(C)ccc(NC(=O)c3cc(Cl)c(O)c(Cl)n3)c2c1=O` [Example 201, 4,6-dichloro-N-(2,8-dimethyl-4-oxo-3-{[2-(trifluoromethyl)phenyl](^2H2)methyl}-3,4-dihydroquinazolin-5-yl)-5-hydroxypyridine-2-carboxamide], the pIC50 was 6.30 to 7.00.

Take `Cc1ccc(NC(=O)c2cc(Cl)c(O)c(Cl)c2)c2c(=O)n(Cc3cccc(C(F)(F)F)n3)c(C)nc12` [Example 199, 3,5-dichloro-N-(2,8-dimethyl-4-oxo-3-((6-(trifluoromethyl)pyridin-2-yl)methyl)-3,4-dihydroquinazolin-5-yl)-4-hydroxybenzamide]: the pIC50 is 6.00 to 6.30.

Turning to `O=C(Nc1ncsc1C(=O)NCc1ccccc1C(F)(F)F)c1cc(Cl)c(O)c(Cl)c1` [Example 26, 4-(3,5-dichloro-4-hydroxybenzamido)-N-(2-(trifluoromethyl)benzyl)thiazole-5-carboxamide], the pIC50 is 6.30 to 7.00. The value for `Cc1nc2c(F)ccc(NC(=O)c3cc(Cl)c(O)c(Cl)c3)c2c(=O)n1C(C)c1ccccc1OC(F)(F)F` (stereo not drawn) [Example 157, 3,5-dichloro-N-(8-fluoro-2-methyl-4-oxo-3-(1-(2-(trifluoromethoxy)phenyl)ethyl)-3,4-dihydroquinazolin-5-yl)-4-hydroxybenzamide] was 6.30 to 7.00.

The compound `Cc1ccc(NC(=O)c2cc(Cl)c(O)c(Cl)c2)c2c(=O)n(Cc3ccccc3OC(F)(F)F)c(C(F)F)nc12` [Example 149, 3,5-dichloro-N-(2-(difluoromethyl)-8-methyl-4-oxo-3-(2-(trifluoromethoxy)benzyl)-3,4-dihydroquinazolin-5-yl)-4-hydroxybenzamide] had a pIC50 not below 7.00. The compound `O=C(Nc1cccc2ncn(Cc3ncccc3Cl)c(=O)c12)c1cc(Cl)c(O)c(Cl)c1` [Example 143, 3,5-dichloro-N-(3-((3-chloropyridin-2-yl)methyl)-4-oxo-3,4-dihydroquinazolin-5-yl)-4-hydroxybenzamide] showed a pIC50 not below 7.00. The value for `Cc1ccc2ncn(Cc3ccccc3OC(F)(F)F)c(=O)c2c1NC(=O)c1cc(Cl)c(O)c(Cl)n1` [Example 131, 4,6-dichloro-5-hydroxy-N-(6-methyl-4-oxo-3-{[2-(trifluoromethoxy)phenyl]methyl}-3,4-dihydroquinazolin-5-yl)pyridine-2-carboxamide] was 6.30 to 7.00; that for `Cc1ccc(NC(=O)c2cc(Cl)c(O)c(Cl)n2)c2c(=O)n(Cc3ncccc3Cl)c(C)nc12` [Example 178, 4,6-dichloro-N-(3-((3-chloropyridin-2-yl)methyl)-2,8-dimethyl-4-oxo-3,4-dihydroquinazolin-5-yl)-5-hydroxypicolinamide] was 6.00 to 6.30; that for `CC(C)(C)CCNC(=O)c1ccccc1NC(=O)c1cc(Cl)c(O)c(Cl)c1` [Example 71, 3,5-dichloro-N-(2-((3,3-dimethylbutyl)carbamoyl)phenyl)-4-hydroxybenzamide] was 6.30 to 7.00. The value for `Cc1nc2c(F)ccc(NC(=O)c3cc(Cl)c(O)c(Cl)c3)c2c(=O)n1Cc1ccccc1C(F)(F)F` [Example 158, 3,5-dichloro-N-(8-fluoro-2-methyl-4-oxo-3-(2-(trifluoromethyl)benzyl)-3,4-dihydroquinazolin-5-yl)-4-hydroxybenzamide] was not below 7.00.

Take `[2H]C([2H])([2H])c1nc2c(C)ccc(NC(=O)c3cc(Cl)c(O)c(Cl)c3)c2c(=O)n1Cc1ccccc1C(F)(F)F` [Example 179, 3,5-dichloro-4-hydroxy-N-(8-methyl-2-(methyl-d3)-4-oxo-3-(2-(trifluoromethyl)benzyl)-3,4-dihydroquinazolin-5-yl)benzamide]: the pIC50 is not below 7.00. The value for `Cc1nc2cccc(NC(=O)c3cc(Cl)c(O)c(Cl)c3)c2c(=O)n1Cc1ccccc1OC(F)(F)F` [Example 64, 3,5-dichloro-4-hydroxy-N-(2-methyl-4-oxo-3-(2-(trifluoromethoxy)benzyl)-3,4-dihydroquinazolin-5-yl)benzamide] was not below 7.00.

The compound `O=C(Nc1cccc2ncn(Cc3ncccc3F)c(=O)c12)c1cc(Cl)c(O)c(Cl)n1` [Example 140, 4,6-dichloro-N-(3-((3-fluoropyridin-2-yl)methyl)-4-oxo-3,4-dihydroquinazolin-5-yl)-5-hydroxypicolinamide] showed a pIC50 of 6.30 to 7.00. The value for `O=C(Nc1ncsc1C(=O)NC1(c2ccc(F)cc2)CC1)c1cc(Cl)c(O)c(Cl)c1` [Example 29, 4-(3,5-dichloro-4-hydroxybenzamido)-N-(1-(4-fluorophenyl)cyclopropyl)thiazole-5-carboxamide] was 6.30 to 7.00; that for `Cc1ccc(NC(=O)c2cc(Cl)c(O)c(Cl)c2)c2c(=O)n(Cc3ccccc3C(F)(F)F)c(CF)nc12` [Example 186, 3,5-dichloro-N-(2-(fluoromethyl)-8-methyl-4-oxo-3-(2-(trifluoromethyl)benzyl)-3,4-dihydroquinazolin-5-yl)-4-hydroxybenzamide] was not below 7.00. `O=C(Nc1cccc2ncn(Cc3ncccc3Cl)c(=O)c12)c1cc(Cl)c(O)c(Cl)n1` [Example 148, 4,6-dichloro-N-(3-((3-chloropyridin-2-yl)methyl)-4-oxo-3,4-dihydroquinazolin-5-yl)-5-hydroxypicolinamide] had a pIC50 of 6.30 to 7.00.

Take `O=C(Nc1cccc2ncnc(NCc3ccccc3OC(F)F)c12)c1cc(Cl)c(O)c(Cl)c1` [Example 54, 3,5-dichloro-N-[4-({[2-(difluoromethoxy)phenyl]methyl}amino)quinazolin-5-yl]-4-hydroxybenzamide]: the pIC50 is 5.00 to 6.00. `O=C(Nc1cccc2ncn(Cc3ccc(F)cc3)c(=O)c12)c1cc(Cl)c(O)c(Cl)n1` [Example 42, 4,6-dichloro-N-{3-[(4-fluorophenyl)methyl]-4-oxo-3,4-dihydroquinazolin-5-yl}-5-hydroxypyridine-2-carboxamide]: the pIC50 is 6.30 to 7.00. The value for `Cc1ccc(NC(=O)c2cc(Cl)c(O)c(Cl)c2)c2c(=O)n(Cc3ncccc3Cl)c(C)nc12` [Example 172, 3,5-dichloro-N-(3-((3-chloropyridin-2-yl)methyl)-2,8-dimethyl-4-oxo-3,4-dihydroquinazolin-5-yl)-4-hydroxybenzamide] was 6.30 to 7.00.
